Here are results for two compounds from patent US10407396B2, “Crystalline form of selexipag” (Apotex Inc., priority 2017, dated 2019).

SMILES strings stand for the structures.

The nature of data set [1]: PXRD study of crystal form stability on storage. It counts as physicochemical. The settings on record: sealed vial under nitrogen atmosphere, room temperature and ambient humidity. The procedure: Selexipag Form APO-I can be characterized by a PXRD diffractogram comprising, among other peaks, characteristic peaks, expressed in degrees 2θ (±0.2°), at 7.5°, 12.4° and 21.7°. Preferably, the PXRD diffractogram further comprises at least three peaks, expressed in degrees 2θ (±0.2°), selected from the group consisting of 9.4°, 11.6°, 14.1°, 15.1°, 16.7°, 17.2°, 18.3°, 19.9°, 22.3° and 23.6°. More preferably, the PXRD diffractogram further comprises peaks, expressed in degrees 2θ (±0.2°), at 9.4°, 11.6°, 14.1°, 15.1°, 16.7°, 17.2°, 18.3°, 19.9°, 22.3° and 23.6°. PXRD studies of samples of Selexipag Form APO-I maintained under a nitrogen atmosphere in a sealed vial have shown that this crystal form is stable following storage at room temperature and ambient humidity for at least 14 days. PXRD diffractograms were recorded on a Bruker D8 Discover powder X-ray diffractometer (Bruker-AXS, Karlsruhe, Germany). The generator was a Micro-focus X-ray source (IMSTube: Cu tube with 1.54184 Å) with a voltage of 50 kV and current of 1.00 mA, using a divergence slit of 0.3 mm and collimator of 0.3 mm. For each sample, one frame was collected using a still scan with a Pilatus 3R-100 kA detector at the distance of 154.72 mm from the sample. Raw data were evaluated using the program EVA (Bruker-AXS, Karlsruhe, Germany).

For data set [2] the following is noted: drug substance in UPTRAVI, per AusPAR, cited from earlier work.

Consider `CC(C)N(CCCCOCC(=O)NS(C)(=O)=O)c1cnc(-c2ccccc2)c(-c2ccccc2)n1` [Selexipag Form APO-I, 2-{4-[N-(5,6-diphenylpyrazin-2-yl)-N-isopropylamino]butyloxy}-N-(methylsulfonyl)acetamide], for which the “crystal form stable following storage (PXRD)” value in data set [1] was “at least 14 days”.

For `CC(C)N(CCCCOCC(=O)NS(C)(=O)=O)c1cnc(-c2ccccc2)c(-c2ccccc2)n1` [Form I, 2-{4-[N-(5,6-diphenylpyrazin-2-yl)-N-isopropylamino]butyloxy}-N-(methylsulfonyl)acetamide], in data set [2] (Class II = high permeability but low solubility), the “Biopharmaceutics Classification System (BCS) class” value is listed as “Class II”. Besides, the solubility behaviour entry in data set [2] is given as “pH dependent solubility”.
